The test system of one data set is NCI-H716. Put plainly: Antiproliferative activity against human NCI-H716 cells expressing FGFR2 assessed as reduction in cell viability measured after 72 hrs. The following applies: NCI-H716, 72 h. It is filed as functional, cell-based.
In a further data set the test system is SNU-16. Put plainly: Antiproliferative activity against human SNU-16 cells assessed as reduction in cell viability measured for 72 hrs. The class given is functional, cell-based. The following applies: SNU-16, 72 h.
A further data set deals with NCI-H1581. Put plainly: Antiproliferative activity against human NCI-H1581 cells expressing FGFR1 assessed as reduction in cell viability measured after 72 hrs. The class given is functional, cell-based. The following applies: NCI-H1581, 72 h.
The nature of data set [1]: GSH reactivity in PBS buffer assessed as percentage peak area ratio incubated for 24 hrs by LC-MS/MS analysis. The class given is physicochemical.
Data set [2] concerns the target T1, Fibroblast growth factor receptor 1 (Homo sapiens, UniProt P11362). Put plainly: Inhibition of FGFR1 (unknown origin) using Poly (Glu,Tyr) 4:1 as substrate incubated for 60 mins in presence of ATP by ELISA analysis. (In general: ELISA stands for enzyme-linked immunosorbent assay.)
Target sequence in this assay (P11362 whole entry): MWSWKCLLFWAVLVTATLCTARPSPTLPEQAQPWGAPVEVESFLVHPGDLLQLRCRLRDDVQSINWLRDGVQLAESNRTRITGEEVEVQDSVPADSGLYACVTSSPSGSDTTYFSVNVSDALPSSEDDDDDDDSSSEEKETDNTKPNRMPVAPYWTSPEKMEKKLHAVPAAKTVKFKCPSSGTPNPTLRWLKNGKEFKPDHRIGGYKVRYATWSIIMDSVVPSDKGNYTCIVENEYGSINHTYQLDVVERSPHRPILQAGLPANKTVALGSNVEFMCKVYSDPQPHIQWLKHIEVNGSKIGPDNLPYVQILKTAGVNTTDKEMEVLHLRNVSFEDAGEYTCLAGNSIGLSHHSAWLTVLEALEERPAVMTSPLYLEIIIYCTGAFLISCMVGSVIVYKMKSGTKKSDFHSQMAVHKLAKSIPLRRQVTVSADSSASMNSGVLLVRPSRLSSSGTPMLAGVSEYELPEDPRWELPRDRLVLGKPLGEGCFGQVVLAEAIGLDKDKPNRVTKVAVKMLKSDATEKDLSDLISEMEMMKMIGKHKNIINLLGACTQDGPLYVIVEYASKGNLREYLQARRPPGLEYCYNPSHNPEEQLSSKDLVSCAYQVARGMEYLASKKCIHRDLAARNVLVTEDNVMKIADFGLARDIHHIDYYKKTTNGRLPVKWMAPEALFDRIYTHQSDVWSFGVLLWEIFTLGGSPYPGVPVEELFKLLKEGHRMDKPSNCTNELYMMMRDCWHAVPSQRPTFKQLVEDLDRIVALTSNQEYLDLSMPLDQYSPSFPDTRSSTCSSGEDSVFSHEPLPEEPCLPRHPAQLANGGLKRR
A short description of data set [3]: Solubility of compound in PBS at pH 7.4 at 1 to 100 microg/ml by laser nephelometry analysis. It is filed as physicochemical. The following applies: dose 1-100 µg/ml.
A short description of data set [4]: Stability in rat whole blood assessed as parent compound remaining measured upto 5 hrs by LC-MS/MS analysis. It is filed as ADME, tissue-based.
The target in data set [5] is T1, Fibroblast growth factor receptor 1. To be noted: dose 100.0 nM, time 60.0 min.
Target sequence in this assay (P11362 22-822 limits assumed): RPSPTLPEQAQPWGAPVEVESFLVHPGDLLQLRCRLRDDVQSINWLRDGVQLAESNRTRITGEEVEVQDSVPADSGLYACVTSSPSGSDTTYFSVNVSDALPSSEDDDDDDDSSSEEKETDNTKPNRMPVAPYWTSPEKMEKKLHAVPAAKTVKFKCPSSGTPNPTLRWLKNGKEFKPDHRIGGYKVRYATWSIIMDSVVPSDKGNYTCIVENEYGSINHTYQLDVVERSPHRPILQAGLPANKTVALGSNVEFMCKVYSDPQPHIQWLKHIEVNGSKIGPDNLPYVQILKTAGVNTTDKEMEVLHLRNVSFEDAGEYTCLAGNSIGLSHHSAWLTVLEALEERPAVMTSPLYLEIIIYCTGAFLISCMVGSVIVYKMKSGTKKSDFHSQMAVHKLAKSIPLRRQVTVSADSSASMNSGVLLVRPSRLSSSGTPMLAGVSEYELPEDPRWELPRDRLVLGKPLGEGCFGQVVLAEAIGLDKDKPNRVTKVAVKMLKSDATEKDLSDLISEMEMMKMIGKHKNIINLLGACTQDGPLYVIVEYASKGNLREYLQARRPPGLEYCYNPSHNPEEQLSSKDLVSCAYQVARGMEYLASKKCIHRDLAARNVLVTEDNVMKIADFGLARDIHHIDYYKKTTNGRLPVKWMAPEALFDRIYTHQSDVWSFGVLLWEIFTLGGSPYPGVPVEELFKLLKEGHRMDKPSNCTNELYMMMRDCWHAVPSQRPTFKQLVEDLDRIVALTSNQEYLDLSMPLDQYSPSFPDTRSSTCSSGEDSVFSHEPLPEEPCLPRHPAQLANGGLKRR
The target is the same in data set [6]. To be noted: dose 1.0 nM, time 60.0 min.
Target sequence in this assay (P11362 22-822 limits assumed): as above
Data set [7] has the same target. To be noted: dose 10.0 nM, time 60.0 min.
Target sequence in this assay (P11362 22-822 limits assumed): as above
Data set [8] can be described thus: Solubility of compound in PBS at pH 7.4. It is filed as physicochemical.
Data set [9] addresses Fibroblast growth factor receptor (Homo sapiens) (UniProt P22607+P11362+P22455+P21802). Put plainly: Inhibition of FGFR signalling in human SNU-16 assessed as inhibition of pErk phosphorylation at 0.1 nM incubated for 2 hrs by Western blot analysis. It is filed as cell-based.
For data set [10], the target named is Fibroblast growth factor receptor 4 (Homo sapiens, UniProt P22455). Put plainly: Inhibition of FGFR4 (unknown origin) using Poly (Glu,Tyr) 4:1 as substrate incubated for 60 mins in presence of ATP by ELISA analysis.
Data set [11] has as its target Voltage-gated inwardly rectifying potassium channel KCNH2 (Homo sapiens, UniProt Q12809). Put plainly: Inhibition of hERG expressed in CHO cells at -80 mV holding potential by automated patch clamp method. It is filed as toxicity, cell-based. (Block of hERG is tested as a sign of cardiac risk.)
Data set [12] concerns the target Fibroblast growth factor receptor 2 (Homo sapiens, UniProt P21802). Put plainly: Inhibition of FGFR2 (unknown origin) using Poly (Glu,Tyr) 4:1 as substrate incubated for 60 mins in presence of ATP by ELISA analysis.
Data set [13] in a line: Stability in rat whole blood assessed as parent compound remaining measured after 2 hrs by LC-MS/MS analysis. The class given is ADME, tissue-based. The following applies: read-out: Stability.
Data set [14] concerns the target Fibroblast growth factor receptor 3 (Homo sapiens, UniProt P22607). Nature of the data set: Inhibition of FGFR3 (unknown origin) using Poly (Glu,Tyr) 4:1 as substrate incubated for 60 mins in presence of ATP by ELISA analysis.

Consider 35 compounds from ChEMBL document CHEMBL5247642, “Structural Optimization of Fibroblast Growth Factor Receptor Inhibitors for Treating Solid Tumors” (J Med Chem, 2023).

The structures appear in SMILES notation. Values after ≈ are worked out from the molar mass of the structure shown. Active and inactive are the calls of the source. No cut-off for these calls is given here.

Sequence of Fibroblast growth factor receptor 2 (P21802 whole entry): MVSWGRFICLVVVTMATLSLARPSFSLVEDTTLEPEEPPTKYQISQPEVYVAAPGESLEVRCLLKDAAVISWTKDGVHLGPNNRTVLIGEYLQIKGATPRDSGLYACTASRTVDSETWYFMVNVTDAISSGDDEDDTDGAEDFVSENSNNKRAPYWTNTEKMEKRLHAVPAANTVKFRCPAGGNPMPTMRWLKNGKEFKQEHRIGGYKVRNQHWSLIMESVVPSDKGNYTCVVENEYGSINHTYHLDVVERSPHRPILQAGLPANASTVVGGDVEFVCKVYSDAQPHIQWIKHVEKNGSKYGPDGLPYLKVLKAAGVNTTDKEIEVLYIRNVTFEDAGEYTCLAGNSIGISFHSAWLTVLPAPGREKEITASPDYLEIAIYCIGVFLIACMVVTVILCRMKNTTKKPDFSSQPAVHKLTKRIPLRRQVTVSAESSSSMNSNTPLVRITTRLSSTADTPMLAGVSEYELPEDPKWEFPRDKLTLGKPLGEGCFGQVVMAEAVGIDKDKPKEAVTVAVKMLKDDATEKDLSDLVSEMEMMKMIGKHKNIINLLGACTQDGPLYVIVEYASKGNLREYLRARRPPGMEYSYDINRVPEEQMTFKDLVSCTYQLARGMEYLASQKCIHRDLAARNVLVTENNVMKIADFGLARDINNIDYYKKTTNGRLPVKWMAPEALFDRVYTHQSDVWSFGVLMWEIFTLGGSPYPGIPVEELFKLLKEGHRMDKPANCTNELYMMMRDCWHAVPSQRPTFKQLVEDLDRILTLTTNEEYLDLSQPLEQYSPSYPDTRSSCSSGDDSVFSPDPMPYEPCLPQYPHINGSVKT
Sequence of Voltage-gated inwardly rectifying potassium channel KCNH2 (Q12809 whole entry): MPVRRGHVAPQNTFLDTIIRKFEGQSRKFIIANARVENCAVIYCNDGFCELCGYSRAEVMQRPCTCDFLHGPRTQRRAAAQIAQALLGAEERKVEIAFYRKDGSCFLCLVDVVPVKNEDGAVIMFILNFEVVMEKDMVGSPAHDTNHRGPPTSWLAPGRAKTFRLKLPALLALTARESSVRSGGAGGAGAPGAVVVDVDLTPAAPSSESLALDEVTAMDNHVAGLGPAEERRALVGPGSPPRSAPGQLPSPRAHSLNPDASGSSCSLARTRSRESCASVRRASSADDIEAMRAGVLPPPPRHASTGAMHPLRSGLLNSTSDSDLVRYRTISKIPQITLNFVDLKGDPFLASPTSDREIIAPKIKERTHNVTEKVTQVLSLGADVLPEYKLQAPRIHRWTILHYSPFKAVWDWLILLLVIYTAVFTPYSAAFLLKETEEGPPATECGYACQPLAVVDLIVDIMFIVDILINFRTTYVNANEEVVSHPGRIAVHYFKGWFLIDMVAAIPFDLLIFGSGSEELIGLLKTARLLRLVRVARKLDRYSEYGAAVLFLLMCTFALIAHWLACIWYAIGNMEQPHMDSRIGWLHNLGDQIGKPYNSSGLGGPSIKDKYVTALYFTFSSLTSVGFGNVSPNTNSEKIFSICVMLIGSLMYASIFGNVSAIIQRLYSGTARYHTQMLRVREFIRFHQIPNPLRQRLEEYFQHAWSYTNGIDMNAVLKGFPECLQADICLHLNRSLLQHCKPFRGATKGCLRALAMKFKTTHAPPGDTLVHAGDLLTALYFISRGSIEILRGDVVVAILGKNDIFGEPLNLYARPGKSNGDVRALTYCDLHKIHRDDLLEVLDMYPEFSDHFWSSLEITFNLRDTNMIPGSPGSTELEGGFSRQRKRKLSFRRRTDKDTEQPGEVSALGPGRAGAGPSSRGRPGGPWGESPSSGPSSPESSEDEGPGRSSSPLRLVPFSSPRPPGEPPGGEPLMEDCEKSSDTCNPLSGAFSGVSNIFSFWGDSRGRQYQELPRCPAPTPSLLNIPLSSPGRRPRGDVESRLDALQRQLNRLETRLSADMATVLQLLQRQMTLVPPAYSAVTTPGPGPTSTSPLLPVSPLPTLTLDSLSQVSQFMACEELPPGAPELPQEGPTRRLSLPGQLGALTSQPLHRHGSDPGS
Sequence of Fibroblast growth factor receptor 3 (P22607 whole entry): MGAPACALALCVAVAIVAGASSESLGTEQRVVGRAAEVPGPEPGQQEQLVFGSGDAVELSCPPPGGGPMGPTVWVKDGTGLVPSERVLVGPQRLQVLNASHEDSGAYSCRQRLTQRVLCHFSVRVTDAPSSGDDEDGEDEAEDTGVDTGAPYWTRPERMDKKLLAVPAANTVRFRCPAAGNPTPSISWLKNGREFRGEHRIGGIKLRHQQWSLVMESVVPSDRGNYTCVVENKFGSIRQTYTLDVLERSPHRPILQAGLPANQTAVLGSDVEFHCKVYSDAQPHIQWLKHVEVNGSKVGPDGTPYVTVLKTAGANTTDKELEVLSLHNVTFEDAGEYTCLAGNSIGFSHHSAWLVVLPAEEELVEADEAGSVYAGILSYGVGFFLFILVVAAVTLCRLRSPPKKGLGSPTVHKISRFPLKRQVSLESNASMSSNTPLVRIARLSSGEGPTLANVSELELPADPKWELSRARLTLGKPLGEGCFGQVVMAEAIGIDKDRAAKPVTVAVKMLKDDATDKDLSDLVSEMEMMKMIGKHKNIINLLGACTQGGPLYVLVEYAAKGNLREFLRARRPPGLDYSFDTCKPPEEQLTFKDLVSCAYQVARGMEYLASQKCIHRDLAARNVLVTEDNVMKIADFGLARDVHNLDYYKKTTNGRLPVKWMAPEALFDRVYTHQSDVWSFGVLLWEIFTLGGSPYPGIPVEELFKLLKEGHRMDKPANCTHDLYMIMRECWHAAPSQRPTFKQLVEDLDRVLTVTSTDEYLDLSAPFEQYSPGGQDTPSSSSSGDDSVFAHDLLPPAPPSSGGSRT

What is called IC50 is the midpoint of a concentration-inhibition curve. With `COc1cc(CCc2cc(NC(=O)c3ccc(N4C[C@@H](C)N[C@@H](C)C4)cc3)n[nH]2)cc(OC)c1` [FEXAGRATINIB], the IC50 came out at 0.6 nM in the data set with NCI-H716, 3.7 nM in the data set with SNU-16 and 15.8 nM with NCI-H1581.
As a reminder, the solubility (kinetic) is the concentration staying in solution when a stock, usually in DMSO, is diluted into the medium. Consider `C#CC(=O)N1CCC(n2nc3c(=O)[nH]nc(N)c3c2-c2oc3ccc(C)cc3c2C)CC1`, for which, in data set [1], the Activity was 0%. The IC50 in the data set with SNU-16 is below 0.3 nM; in data set [2], 0.9 nM. In addition, in data set [3], the kinetic solubility stood at 10 µg/mL (≈ 23.2 µM). Moreover, the Stability result in [4] is given as “Unstable”.
In turn, `C=CC(=O)N1CCC[C@@H](n2nc(-c3ccc(Oc4ccccc4)cc3)c3c(N)ncnc32)C1` [IBRUTINIB] gave a kinetic solubility in data set [3] of 10 µg/mL (≈ 22.7 µM).
For the compound `C#CC(=O)N1CCCC(n2nc3c(=O)[nH]nc(N)c3c2-c2oc3ccc(C)cc3c2C)C1` (racemic), the IC50 in the data set with SNU-16 turned out to be 15.8 nM; in [2], 3.9 nM.
`CN(C)C/C=C/C(=O)Nc1cc2c(Nc3ccc(F)c(Cl)c3)ncnc2cc1O[C@H]1CCOC1` [AFATINIB] showed a solubility (kinetic) in [3] of 50 µg/mL (≈ 103 µM).
One may read the inhibition as the change of the read-out against control, counted positive when it falls. For `C/C=C(\C)C(=O)N1CCCC(n2nc3c(=O)[nH]nc(N)c3c2-c2oc3ccc(C)cc3c2C)C1` (racemic), in data set [5], the inhibition was found to be 37%.
In the case of `Cc1ccc2oc(-c3c4c(N)n[nH]c(=O)c4nn3C3CCN(C(=O)C#CCO)CC3)c(C)c2c1`, the values for the IC50 (with SNU-16; in data set [2]) were 16.6 nM and 2.2 nM, respectively.
For `CCC#CC(=O)N1CCCC(n2nc3c(=O)[nH]nc(N)c3c2-c2oc3ccc(C)cc3c2C)C1` (racemic), the IC50 in the data set with SNU-16 was 36.4 nM; in [2], 25.4 nM.
For `CC/C=C/C(=O)N1CCCC(n2nc3c(=O)[nH]nc(N)c3c2-c2oc3ccc(C)cc3c2C)C1` (racemic), the IC50 in data set [2] was found to be 122 nM.
On to `CC#CC(=O)N1CCCC(n2nc3c(=O)[nH]nc(N)c3c2-c2oc3ccc(C)cc3c2C)C1` (racemic), for which the IC50 with SNU-16 was determined as 35.2 nM; in data set [2] it was 27.3 nM.
Take `C=CC(=O)N1CCC(Cn2nc3c(=O)[nH]nc(N)c3c2-c2oc3ccc(C)cc3c2C)CC1`: the IC50 with SNU-16 was determined as 2 nM. In [3], the solubility (kinetic) was determined as 10 µg/mL (≈ 22.4 µM). Further, the inhibition is 61.6% in data set [5], 29.5% in data set [6] and 48.3% in [7].
With `CC#CC(=O)N1CCC(n2nc3c(=O)[nH]nc(N)c3c2-c2oc3ccc(C)cc3c2C)CC1`, in data set [1], the Activity stood at 87%. The IC50 in the data set with SNU-16 is below 0.3 nM; in data set [2], 6.7 nM. In [3], this compound showed a solubility (kinetic) of 1 µg/mL (≈ 2.25 µM). Moreover, the Stability entry in data set [4] is “Stable”.
Take `C=CC(=O)N1CCC(n2nc3c(=O)[nH]nc(N)c3c2-c2oc3cc(C)ccc3c2C)CC1`: the IC50 with SNU-16 was below 0.3 nM; in [2] it was 2.3 nM. This compound also displayed a kinetic solubility in data set [3] of 10 µg/mL (≈ 23.1 µM).
As usually defined, the solubility is the concentration that dissolves in the medium under given conditions. Low readings indicate a poorly soluble substance, high ones a readily soluble substance. For `C=CC(=O)Nc1ccc(-n2nc3c(=O)[nH]nc(N)c3c2-c2oc3ccc(C)cc3c2C)cc1`, the kinetic solubility in data set [3] is 1 µg/mL (≈ 2.27 µM). The solubility in [8] turned out to be 1 µg/mL (≈ 2.27 µM).
In the case of `CCC#CC(=O)N1CCC(n2nc3c(=O)[nH]nc(N)c3c2-c2oc3ccc(C)cc3c2C)CC1`, the values for the 50% inhibitory concentration (IC50) (in the data set with SNU-16; in [2]) were below 0.3 nM and 7.71 nM, respectively. This compound also gave a kinetic solubility in data set [3] of 1 µg/mL (≈ 2.18 µM).
Take `C=CC(=O)N1CCC(n2nc3c(=O)[nH]nc(N)c3c2-c2oc3cc(OC)ccc3c2C)CC1`: the IC50 with SNU-16 is 8.9 nM; in data set [2] it was 101 nM.
With `Cc1ccc2oc(-c3c4c(N)n[nH]c(=O)c4nn3C3CCCN(C(=O)C#CCO)C3)c(C)c2c1` (racemic), the IC50 with SNU-16 is 82.9 nM; in data set [2], 21.9 nM.
Compound `C=C(C)C(=O)N1CCCC(n2nc3c(=O)[nH]nc(N)c3c2-c2oc3ccc(C)cc3c2C)C1` (racemic) displayed an inhibition in data set [5] of 36%.
Take `Cc1ccc2oc(-c3c4c(N)n[nH]c(=O)c4nn3C3CCCN(C(=O)CC#N)C3)c(C)c2c1` (racemic): the inhibition in [5] is 31%.
Still for that read-out and setting: the same measure for `C=CC(=O)N1CCC(n2nc3c(=O)[nH]nc(N)c3c2-c2oc3ccc(C(F)(F)F)cc3c2C)CC1`: 27%.
Turning to `C=C(F)C(=O)N1CCC(n2nc3c(=O)[nH]nc(N)c3c2-c2oc3ccc(C)cc3c2C)CC1`, the solubility (kinetic) in data set [3] worked out at 10 µg/mL (≈ 22.2 µM).
Consider `C=CC(=O)N[C@H]1CC[C@H](n2nc3c(=O)[nH]nc(N)c3c2-c2oc3ccc(C)cc3c2C)CC1`, for which, in the data set with SNU-16, the IC50 came to 3.1 nM. Besides, the values for the inhibition in [5], in [6] and in [7] were 85.7%, 32.4% and 47.4%, respectively.
In the case of `C=CC(=O)N1CCC(n2nc3c(=O)[nH]nc(N)c3c2-c2oc3ccc(C)cc3c2C)CC1`, in [9], the inhibition result was “Active”. In addition, the Activity in data set [1] was found to be 84%. Further, the IC50 is below 0.05 nM in the data set on SNU-16; 8 nM in data set [2]; 45.5 nM in data set [10]; 1130 nM in [11]; 4.4 nM in data set [12]; 18.7 nM in data set [14]. Further, the kinetic solubility in data set [3] was found to be 10 µg/mL (≈ 23.1 µM). Besides, the results for the inhibition in data set [5], in data set [6] and in [7] were 91.2%, 14.2% and 78.2%, respectively. Besides, in [13], the remaining at 2 h was above 40%. The Stability result in data set [4] is reported as “Stable”.
For `C=CC(=O)N1CCC(n2nc3c(=O)[nH]nc(N)c3c2-c2oc3ccc(Cl)cc3c2C)CC1`, the IC50 with SNU-16 was determined as 9 nM; in data set [2], 2 nM.
For the compound `C/C=C/C(=O)N1CCCC(n2nc3c(=O)[nH]nc(N)c3c2-c2oc3ccc(C)cc3c2C)C1` (racemic), the IC50 in data set [2] stood at 67.7 nM.
`C=CC(=O)N1CCCC(n2nc3c(=O)[nH]nc(N)c3c2-c2oc3cccc(OC)c3c2C)C1` (racemic) returned an inhibition in data set [5] of 32%.
Same read-out and setting: the figure for `C=CC(=O)N1CCCC(n2nc3c(=O)[nH]nc(N)c3c2-c2oc3cc(OC)cc(OC)c3c2C)C1` (racemic) is 40%; for `C=CC(=O)N1CCC(n2nc3c(=O)[nH]nc(N)c3c2-c2oc3ccc(F)cc3c2C)CC1` it is 20%.
`C=CC(=O)N1CCC(n2nc3c(=O)[nH]nc(N)c3c2-c2oc3cccc(OC)c3c2C)CC1`: the IC50 in the data set on SNU-16 was below 0.3 nM; in data set [2], 111 nM.
Taken in the same sequence, the figures for `C=CC(=O)N1CCCC(n2nc3c(=O)[nH]nc(N)c3c2-c2oc3ccc(Cl)cc3c2C)C1` (racemic) were below 0.3 nM and 6.4 nM.
As to `C=CC(=O)N1CCC(n2nc3c(=O)[nH]nc(N)c3c2-c2oc3cc(F)ccc3c2C)CC1`, the IC50 in the data set on SNU-16 came to 1.5 nM; in [2], 6.5 nM. Moreover, the kinetic solubility in data set [3] came to 10 µg/mL (≈ 22.9 µM).
For the compound `C=CC(=O)N1CCC(n2nc3c(=O)[nH]nc(N)c3c2-c2oc3cc(OC)cc(OC)c3c2C)CC1`, in data set [2], the half-inhibitory concentration (IC50) was 84.4 nM. The compound also came in with an inhibition in [5] of 44%.
Take `C=CC(=O)N1CCC(n2nc3c(=O)[nH]nc(N)c3c2-c2oc3ccc(OC)cc3c2C)CC1`: the inhibition in data set [5] worked out at 44%.
For `Cc1ccc2oc(-c3c4c(N)n[nH]c(=O)c4nn3C3CCCN(C(=O)/C=C/CN(C)C)C3)c(C)c2c1` (racemic), in [2], the half-maximal inhibitory concentration (IC50) stood at 117 nM. The solubility (kinetic) in data set [3] was determined as 10 µg/mL (≈ 20.4 µM).
In turn, `C=CC(=O)N1CCCC(n2nc3c(=O)[nH]nc(N)c3c2-c2oc3cc(OC)ccc3c2C)C1` (racemic) showed an inhibition in data set [5] of 11%.
